Molecular target: T1, human full-length HSP90 (Homo sapiens, UniProt P08238)
T1 construct: E. coli expressed human full-length HSP90 protein, purified >95%; made in house; host or cells: E. coli
Experiment: Fluorescence polarization (FP) binding assay
Details: competitive displacement of fluorescein-labelled probe from human full-length HSP90; activity range; read-out: ACTIVITY* (Activity in the FP binding assay)
Source text: Fluorescence Polarization Assay
Fluorescence polarization {also known as fluorescence anisotropy} measures the rotation of a fluorescing species in solution, where the larger molecule the more polarized the fluorescence emission. When the fluorophore is excited with polarized light, the emitted light is also polarized. The molecular size is proportional to the polarization of the fluorescence emission.
The fluoroscein-labelled probe—
binds to HSP90 {full-length human, full-length yeast or N-terminal domain HSP90} and the anisotropy {rotation of the probe:protein complex} is measured.
Test compound is added to the assay plate, left to equilibrate and the anisotropy measured again. Any change in anisotropy is due to competitive binding of compound to HSP90, thereby releasing probe.
Stored at room temperature. • 3) BSA (bovine serum albumen) 10 mg/ml (New England Biolabs # B9001S) • 4) 20 mM probe in 100% DMSO stock concentration. Stored in the dark at RT. Working concentration is 200 nM diluted in AR water and stored at 4° C.
• 1) Add 100 μl×buffer to wells 1A and 12A(=FP BLNK) • 2) Prepare assay mix—all reagents are kept on ice with a lid on the bucket as the probe is light-sensitive.
• 3) Aliquot 100 μl assay mix to all other wells • 4) Seal plate and leave in dark at room temp for 20 minutes to equilibrate
This gives 2.5 mM {50×} stock cpd−assuming cpds 20 mM. • 4) Repeat for wells A2 to A10. Control in columns 11 and 12. • 5) Transfer 5 μl from row A to row B—not column 12. Mix well. • 6) Transfer 5 μl from row B to row C. […] Add 2 μl of 100 mM standard cpd to wells B12-H12 {is positive control} • 13) The Z′ factor is calculated from zero controls and positive wells.

T1 sequence (P08238 whole entry): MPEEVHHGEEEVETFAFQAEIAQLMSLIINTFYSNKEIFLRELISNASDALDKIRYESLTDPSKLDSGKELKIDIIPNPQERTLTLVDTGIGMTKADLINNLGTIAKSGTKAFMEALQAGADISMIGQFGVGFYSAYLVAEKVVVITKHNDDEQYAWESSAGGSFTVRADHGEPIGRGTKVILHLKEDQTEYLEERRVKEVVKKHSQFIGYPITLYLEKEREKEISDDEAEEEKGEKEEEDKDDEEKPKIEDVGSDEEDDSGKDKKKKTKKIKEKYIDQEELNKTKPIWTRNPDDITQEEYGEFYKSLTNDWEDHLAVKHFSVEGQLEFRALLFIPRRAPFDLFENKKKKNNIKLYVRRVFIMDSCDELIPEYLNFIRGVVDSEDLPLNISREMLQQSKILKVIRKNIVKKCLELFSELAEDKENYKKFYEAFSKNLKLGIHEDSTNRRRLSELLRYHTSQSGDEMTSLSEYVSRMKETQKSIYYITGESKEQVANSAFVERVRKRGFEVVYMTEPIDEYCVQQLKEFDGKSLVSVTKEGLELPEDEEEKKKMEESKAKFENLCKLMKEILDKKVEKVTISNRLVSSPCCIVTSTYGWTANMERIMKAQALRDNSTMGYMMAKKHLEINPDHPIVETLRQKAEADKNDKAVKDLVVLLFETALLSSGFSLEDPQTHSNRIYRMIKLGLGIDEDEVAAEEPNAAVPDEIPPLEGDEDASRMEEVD

| Structure (SMILES) | IC50 |
| --- | --- |
| CCN(CC)CCOc1cc(-c2nc(SC(C)C)nc3[nH]cc(C#N)c23)c(Cl)cc1OC [Example 68] | < 500 nM |
| COc1cc(Cl)c(-c2nc(SC(C)(C)C)nc3[nH]cc(C#N)c23)cc1OCCN1CC[C@@H](F)C1 [Example 78] | < 500 nM |
| COc1cc(Cl)c(-c2nc(SC)nc3[nH]cc(C#N)c23)cc1OCCN1CC[C@H](F)C1 [Example 73] | < 500 nM |
| CSc1nc(-c2cc3c(cc2Cl)OCO3)c2c(C#N)c[nH]c2n1 [Example 77] | < 500 nM |
| CCN(CC)CCOc1nc(-c2ccc(OC)c(OC)c2)c2c(C#N)c[nH]c2n1 [Example 53] | 500 to 10000 nM |
| COc1cc(Cl)c(-c2nc(SC(C)(C)CN3CCC(F)(F)C3)nc3[nH]cc(C#N)c23)cc1OC [Example 90] | < 500 nM |
| CSc1nc(-c2cc(OCc3ccccc3)c(Cl)cc2Cl)c2c(C#N)c[nH]c2n1 [Example 54] | 500 to 10000 nM |
| CCOC(=O)C(C)Sc1nc(-c2cc(OCCN3CCC(F)(F)C3)c(OC)cc2Cl)c2c(C#N)c[nH]c2n1 (stereo not shown) [Example 88] | < 500 nM |
| COc1cc(Cl)c(-c2nc(SC(C)C(=O)O)nc3[nH]cc(C#N)c23)cc1OCCN1CCC(F)(F)C1 (stereo not shown) [Example 89] | < 500 nM |
| COc1cc(Cl)c(-c2nc(Sc3nccn3C)nc3[nH]cc(C#N)c23)cc1OC [Example 91] | 500 to 10000 nM |
| COc1cc(Cl)c(-c2nc(Oc3ccccc3)nc3[nH]cc(C#N)c23)cc1OC [Example 86] | < 500 nM |
| COc1cc(Cl)c(-c2nc(OCCN3CCOCC3)nc3[nH]cc(C#N)c23)cc1OC [Example 61] | < 500 nM |
| N#Cc1c[nH]c2nc(OCCN3CCC(F)(F)CC3)nc(-c3cc(OCc4ccccc4)c(Cl)cc3Cl)c12 [Example 52] | 500 to 10000 nM |
| CCN(CC)CCOc1cc(-c2nc(OC(C)C)nc3[nH]cc(C#N)c23)c(Cl)cc1OC [Example 79] | < 500 nM |
| COc1cc(Cl)c(-c2nc(OCCN3CC[C@H](F)C3)nc3[nH]cc(C#N)c23)cc1OC [Example 58] | < 500 nM |
| COc1cc(Cl)c(-c2nc(SC)nc3[nH]cc(C#N)c23)cc1OCCN1CCCC(F)(F)C1 [Example 66] | < 500 nM |
| COc1cc(Cl)c(-c2nc(Sc3nccs3)nc3[nH]cc(C#N)c23)cc1OC [Example 85] | < 500 nM |
| COc1cc(Cl)c(-c2nc(OCCCN3CCOCC3)nc3[nH]cc(C#N)c23)cc1OC [Example 60] | < 500 nM |
| COc1cc(Cl)c(-c2nc(SC(C)C)nc3[nH]cc(C#N)c23)cc1OCCN1CCC(F)(F)C1 [Example 75] | < 500 nM |
| COc1cc(Cl)c(-c2nc(Sc3ccccc3)nc3[nH]cc(C#N)c23)cc1OC [Example 84] | < 500 nM |
| COc1cc(Cl)c(-c2nc(SC(C)C)nc3[nH]cc(C#N)c23)cc1OCCN1CCC(F)(F)CC1 [Example 76] | < 500 nM |

Same assay, conditions: competitive displacement of fluorescein-labelled probe from human full-length HSP90; activity range; read-out: activity in the fluorescence polarization assay

| Structure (SMILES) | IC50 |
| --- | --- |
| CSc1nc(-c2ccc(C)cc2C)c2c(C)c[nH]c2n1 [Example 6, 4-(2,4-dimethyl-phenyl)-5-methyl-2-methylsulfanyl-7H-pyrrolo[2,3-d]pyrimidine] | 500 to 10000 nM |
| CSc1nc(-c2cc(OCCN3CCCC3)c(Cl)cc2Cl)c2c(C#N)c[nH]c2n1 [Example 26, 4-[2,4-Dichloro-5-(2-pyrrolidin-1-yl-ethoxy)-phenyl]-2-methylsulfanyl-7H-pyrrolo[2,3-d]pyrimidine-5-carbonitrile] | < 500 nM |
| Cc1ccc(-c2ncnc3[nH]cc(C#N)c23)c(C)c1 [Example 9, 4-(2,4-dimethyl-phenyl)-7H-pyrrolo[2,3-d]pyrimidine-5-carbonitrile] | 500 to 10000 nM |
| CSc1nc(-c2ccccc2)c2c(C#N)c[nH]c2n1 [Example 2, 2-methylsulfanyl-4-phenyl-7H-pyrrolo[2,3-d]pyrimidine-5-carbonitrile] | < 500 nM |
| CCc1nc(-c2ccc(F)cc2C)c2c(C#N)c[nH]c2n1 [Example 18, 2-Ethyl-4-(4-fluoro-2-methyl-phenyl)-7H-pyrrolo[2,3-d]pyrimidine-5-carbonitrile] | 500 to 10000 nM |
| COc1cc(-c2nc(SC)nc3[nH]cc(C#N)c23)c(Cl)cc1Cl [Example 22, 4-(2,4-Dichloro-5-methoxy-phenyl)-2-methylsulfanyl-7H-pyrrolo[2,3-d]pyrimidine-5-carbonitrile] | < 500 nM |
| CCOC(=O)CSc1nc(-c2cc(OCCN3CCC(F)(F)C3)c(OC)cc2Cl)c2c(C#N)c[nH]c2n1 [Example 49, (4-{2-Chloro-5-[2-(3,3-difluoro-pyrrolidin-1-yl)-ethoxy]-4-methoxy-phenyl}-5-cyano-7H-pyrrolo[2,3-d]pyrimidin-2-ylsulfanyl)-acetic Acid Ethyl Ester] | < 500 nM |
| Cc1cc(F)ccc1-c1nc(N2CCN(C)CC2)nc2[nH]cc(C#N)c12 [Example 16, 4-(4-Fluoro-2-methyl-phenyl)-2-(4-methyl-piperazin-1-yl)-7H-pyrrolo[2,3-d]pyrimidine-5-carbonitrile] | > 10000 nM |
| COc1ccc(-c2nc(OCCN3CCC(F)(F)CC3)nc3[nH]cc(C#N)c23)cc1OC [Example 32, 4-(4,5-Dimethoxy-phenyl)-2-[2-(4,4-difluoro-piperidin-1-yl)-ethoxy]-7H-pyrrolo[2,3-d]pyrimidine-5-carbonitrile] | < 500 nM |
| CSc1nc(-c2ccc(C)cc2C)c2c(C(F)(F)F)c[nH]c2n1 [Example 10, 4-(2,4-Dimethyl-phenyl)-2-methylsulfanyl-5-trifluoromethyl-7H-pyrrolo[2,3-d]pyrimidine] | 500 to 10000 nM |
| CCN(CC)CC[S+]([O-])c1nc(-c2cc(OC)c(OC)cc2Cl)c2c(C#N)c[nH]c2n1 (stereo not shown) [Example 46, 4-(2-Chloro-4,5-dimethoxy-phenyl)-2-(2-diethylamino-ethanesulfinyl)-7H-pyrrolo[2,3-d]pyrimidine-5-carbonitrile] | 500 to 10000 nM |
| CCN(CC)CCSc1nc(-c2cc(OC)c(OC)cc2Cl)c2c(C#N)c[nH]c2n1 [Example 30, 4-(2-Chloro-4,5-dimethoxy-phenyl)-2-(2-diethylamino-ethylsulfanyl)-7H-pyrrolo[2,3-d]pyrimidine-5-carbonitrile] | < 500 nM |
| Cc1cc(F)ccc1-c1nc(OCCN2CCCC2=O)nc2[nH]cc(C#N)c12 [Example 15, 4-(4-Fluoro-2-methyl-phenyl)-2-[2-(2-oxo-pyrrolidin-1-yl)-ethoxy]-7H-pyrrolo[2,3-d]pyrimidine-5-carbonitrile] | 500 to 10000 nM |
| CSc1nc(-c2ccc(F)cc2C)c2c(C#N)c[nH]c2n1 [Example 4, 4-(2-methyl-4-fluoro-phenyl)-2-methylsulfanyl-7H-pyrrolo[2,3-d]pyrimidine-5-carbonitrile] | < 500 nM |
| CSc1nc(-c2ccc(C)cc2C)c2c(C#N)c[nH]c2n1 [Example 1, 4-(2,4-dimethyl-phenyl)-2-methylsulfanyl-7H-pyrrolo[2,3-d]pyrimidine-5-carbonitrile] | < 500 nM |
| CCN(CC)CCOc1cccc(-c2nc(SC)nc3[nH]cc(C#N)c23)c1 [Example 7] | 500 to 10000 nM |
| CSc1nc(-c2ccc(F)cc2C)c2c(C(N)=O)c[nH]c2n1 [Example 40, 4-(4-Fluoro-2-methyl-phenyl)-2-methylsulfanyl-7H-pyrrolo[2,3-d]pyrimidine-5-carboxylic Acid Amide] | > 10000 nM |
| CSc1nc(-c2ccc(C)cc2C)c2c(C3CC3)c[nH]c2n1 [Example 11, 5-Cyclopropyl-4-(2,4-dimethyl-phenyl)-2-methylsulfanyl-7H-pyrrolo[2,3-d]pyrimidine] | > 10000 nM |
| CNC(=O)CSc1nc(-c2ccc(F)cc2C)c2c(C#N)c[nH]c2n1 [Example 38, 2-[5-Cyano-4-(4-fluoro-2-methyl-phenyl)-7H-pyrrolo[2,3-d]pyrimidin-2-ylsulfanyl]-N-methyl-acetamide] | < 500 nM |
| CSc1nc(-c2ccc(Cl)cc2Cl)c2c(C#N)c[nH]c2n1 [Example 41, 4-(Dichloro-phenyl)-2-methylsulfanyl-7H-pyrrolo[2,3-d]pyrimidine-5-carbonitrile] | < 500 nM |
| COc1cc(Cl)c(-c2nc([S+](C)[O-])nc3[nH]cc(C#N)c23)cc1OC (stereo not shown) [Example 47] | 500 to 10000 nM |
| COc1cc(Cl)c(-c2nc(OCCN3CCC(F)(F)C3)nc3[nH]cc(C#N)c23)cc1OC [Example 36] | < 500 nM |

Reference: US20090163490A1, “Pyrrolopyrimidine Derivatives Used As HSP90 Inhibitors” (VERNALIS (R&D) LTD., priority 2006, published 2009)
